The species named for one experiment is Oryctolagus cuniculus. Briefly: Activity against adenosine diphosphate (ADP) induced platelet aggregation.
For `CCCCCCOc1c(OC)cc(/C=C/CCCC[N+](C)(C)C)cc1OC.[I-]`, the IC50 entry is on record as “Not Active”. In the case of `CCCCCCOc1c(OC)cc(C(=O)OCCCC[n+]2cccc3ccccc32)cc1OC.[Cl-]`, the IC50 result was “Not Active”. In the case of `CCCCCCOc1c(OC)cc(C(=O)OCCCCN(C)C)cc1OC`, the IC50 entry is on record as “Not Active”. In the case of `CCCCCOc1c(OC)cc(C(=O)OCCCC[N+](C)(C)C)cc1OC.[I-]`, the IC50 entry is “Not Active”. On to `CCCCCCOc1c(OC)cc(C(=O)OCCCC[N+](C)(C)C)cc1OC.[I-]`, for which the IC50 entry is “Not Active”. Still for that read-out and setting: next, `CCCCCCOc1c(OC)cc(C(=O)OCCC[N+](C)(C)C)cc1OC.[I-]`: “Not Active”; `CCCCCCOc1c(OC)cc(OC(=O)CCCC[N+](C)(C)C)cc1OC.[I-]`: “Not Active”; `CCCCCCCOc1c(OC)cc(C(=O)OCCCC[N+](C)(C)C)cc1OC.[I-]`: “Not Active”. Regarding `CCCCCCOc1c(OC)cc(C(=O)Oc2cccc3ccc[n+](C)c23)cc1OC.[I-]`, the IC50 entry was “Not Active”. Regarding `CCCCCCOc1c(OC)cc(C(=O)OCCCC[n+]2ccccc2)cc1OC.[I-]`, the IC50 result was “Not Active”. Regarding `CCCCCCOc1c(OC)cc(C=CCCCC[N+](C)(C)C)cc1OC.[I-]`, the IC50 entry is reported as “Not Active”. As for `CCCCCCOc1c(OC)cc(C(=O)OCCc2sc[n+](C)c2C)cc1OC.[I-]`, the IC50 entry is given as “Not Active”.

With `CCCCOc1c(OC)cc(C(=O)OCC[N+](C)(C)C)cc1OC.[I-]`, the IC50 entry is recorded as “Not Active”. The same measure, in the same setting: the value for `COc1cc(C(=O)OCCCC[N+](C)(C)C)cc(OC)c1OCc1ccccc1.[I-]` was “Not Active”; that for `CCCCCCOc1c(OC)cc(C(=O)OCCCC[N+](CC)(CC)CC)cc1OC.[I-]` was “Not Active”; that for `CCCCCCOc1c(OC)cc(C(=O)OCC[N+](C)(C)C)cc1OC.[I-]` was “Not Active”. The same measure, in the same setting: the value for `CCCCCCOc1ccc(C(=O)OCCCC[N+](C)(C)C)cc1OC.[I-]` was “Not Active”.

For a further experiment, the species on record is Oryctolagus cuniculus. Briefly: Competitive inhibition of PAF-induced platelet aggregation was measured as IC50 ratio = [1000 x the IC50 of the test compound divided by the IC50 of a standard (3)]. The class given is functional.
Regarding `COc1cc(C(=O)OCC[N+](C)(C)C)cc(OC)c1OC.[I-]`, the IC50 ratio is on record as 15000.

In a further experiment the test system is Platelet-activating factor receptor (Oryctolagus cuniculus). Briefly: Competitive inhibition of PAF-induced platelet aggregation was measured as IC50 ratio is (1000 x the IC50 of the test compound divided by the IC50 of a standard).
In the case of `CCCCCCOc1c(C)cc(C(=O)OCCCC[N+](C)(C)C)cc1C`, the IC50 ratio was found to be 265. Still for that read-out and setting: the value for `CCCCCCOc1c(OC)cc(C(=O)OCc2ccccc2C[N+](C)(C)C)cc1OC` was 144; that for `CCCCCCCCOc1c(OC)cc(C(=O)OCCCC[N+](C)(C)C)cc1OC` was 103; that for `CCCCCCOc1c(OC)cc(/C=C/CCCC[N+](C)(C)C)cc1OC.[I-]` was 133.

As for `CCCCCCOc1c(OC)cc(C(=O)OCCCC[n+]2cccc3ccccc32)cc1OC.[Cl-]`, the IC50 ratio worked out at 57.3. `COc1cc(C(=O)OCCCC[N+](C)(C)C)cc(OC)c1OCC1CCCCC1.[I-]`: the IC50 ratio amounted to 443. Consider `CCCCCCOc1c(OC)cc(C(=O)OCCCCCC[N+](C)(C)C)cc1OC`, for which the IC50 ratio was 270.

As to `CCCCCCOc1c(Cl)cc(C(=O)OCCCC[N+](C)(C)C)cc1OC`, the IC50 ratio was 263. For `CCCCCCOc1c(OC)cc(C(=O)OCCCCN(C)C)cc1OC`, the IC50 ratio came to 1500. Consider `CCCCCOc1c(OC)cc(C(=O)OCCCC[N+](C)(C)C)cc1OC.[I-]`, for which the IC50 ratio was 540. Turning to `CCCCCCOc1c(OC)cc(C(=O)OCCCC[N+](C)(C)C)cc1OC.[I-]`, the IC50 ratio stood at 164. Still for that read-out and setting: the value for `CCCCCCOc1c(OC)cc(C(=O)OCCC[N+](C)(C)C)cc1OC.[I-]` was 7000. On to `CCCCCCOc1c(OC)cc(C(=O)Oc2ccccc2CC[N+](C)(C)C)cc1OC`, for which the IC50 ratio stood at 507. On to `CCCCCCOc1c(OC)cc(CCCCCC[N+](C)(C)C)cc1OC`, for which the IC50 ratio worked out at 65. On to `CCCCCCOc1c(OC)cc(CC(=O)OCCC[N+](C)(C)C)cc1OC`, for which the IC50 ratio was determined as 820. For `CCCCCCOc1c(OC)cc(OC(=O)CCCC[N+](C)(C)C)cc1OC.[I-]`, the IC50 ratio worked out at 833. Regarding `CCCCCCOc1c(OC)cc(CCCCc2scnc2C)cc1OC`, the IC50 ratio turned out to be 14.7.

As for `CCCCCCOc1c(OC)cc(C(=O)OCCc2scnc2C)cc1OC`, the IC50 ratio turned out to be 116. Still for that read-out and setting: next, `CCCCCCCOc1c(OC)cc(C(=O)OCCCC[N+](C)(C)C)cc1OC.[I-]`: 199. On to `CCCCCCOc1c(OC)cc(C(=O)Oc2cccc3ccc[n+](C)c23)cc1OC.[I-]`, for which the IC50 ratio turned out to be 11.7. Same read-out and setting: next, `CCCCCCOc1c(OC)cc(C(=O)OCCCC[n+]2ccccc2)cc1OC.[I-]`: 107.

For `CCCCCCOc1c(OC)cc(C=CCCCC[N+](C)(C)C)cc1OC.[I-]`, the IC50 ratio came out at 200.

Turning to `CCCCCCOc1c(OC)cc(C(=O)OCCc2sc[n+](C)c2C)cc1OC.[I-]`, the IC50 ratio is 114. Same read-out and setting: the value for `CCCCCCCCCCCCCCCCOc1c(OC)cc(C(=O)OCCCC[N+](C)(C)C)cc1OC` was 35; that for `CCCCOc1c(OC)cc(C(=O)OCC[N+](C)(C)C)cc1OC.[I-]` was 3370. Take `CCCCCCOc1c(OC)cc(C(=O)OCCCC[n+]2ccsc2)cc1OC`: the IC50 ratio is 48. Regarding `COc1cc(C(=O)OCCCC[N+](C)(C)C)cc(OC)c1OCc1ccccc1.[I-]`, the IC50 ratio was found to be 533.

Regarding `CCCCCCOc1c(OC)cc(C(=O)Oc2ccc3c(ccc[n+]3C)c2)cc1OC`, the IC50 ratio stood at 13. On to `CCCCCCOc1c(OC)cc(C(=O)OCCCC[N+](CC)(CC)CC)cc1OC.[I-]`, for which the IC50 ratio was 115. For the compound `CCCCCCCCCCOc1c(OC)cc(C(=O)OCC[N+](C)(C)C)cc1OC`, the IC50 ratio came to 153. Still for that read-out and setting: the value for `CCCCCCOc1c(OC)cc(C(=O)OCC[N+](C)(C)C)cc1OC.[I-]` was 1000. The same measure, in the same setting: the value for `CCCCCCOc1ccc(C(=O)OCCCC[N+](C)(C)C)cc1OC.[I-]` was 1740; that for `COc1cc(C(=O)OCCCC[N+](C)(C)C)cc(OC)c1OCCC1CCCC1` was 203.

With `CCCCCCOc1ccc(C(=O)OCCCC[N+](C)(C)C)cc1`, the IC50 ratio stood at 1400.

The species named for a further experiment is Oryctolagus cuniculus. As to the kind of experiment: Activity against U-46,619 induced platelet aggregation; no effect at 20 uM. The class given is functional.
Consider `COc1cc(C(=O)OCCCC[N+](C)(C)C)cc(OC)c1OCC1CCCCC1.[I-]`, for which the IC50 result is recorded as “Not Active”.

These data come from ChEMBL document CHEMBL1128601, “Development of a novel series of trialkoxyaryl derivatives as specific and competitive antagonists of platelet activating factor” (J Med Chem, 1995).
